Tests used:
[1] = system: VCAM-1; test: VCAM-1 Assay: TNF-stimulated cells, cell-surface ELISA; type: cell-based; details: for IC50: bare number = IC50, NE not defined in the patent, read-out: VCAM-1 IC50 or % inhibition at [μM]: IC50; for VCAM-1 % inhibition at [μM]: at 50 μM
Description: Two to four confluent P150 plates are trypsinized and the cells transferred to a 50 mL conical centrifuge tube. The cells are pelleted, resuspended, and counted using the trypan blue exclusion method.
Cells are resuspended at a concentration of 36,000 cells/mL and 1 mL is aliquoted per well.
Cells are split into 24 well tissue culture plates. The cells in each well should be approximately 90-95% confluent by the following day. Cells should not be older than passage 8.
Compounds are initially screened at 50 μM and 10 μM. A 50 mM stock solution for each compound is prepared in culture medium. The stock solution is diluted to 5 mM and 1 mM. When 10 μL of the 5 mM solution is added to the well (1 mL medium/well), the final concentration will be 50 μM. Adding 10 μL of the 1 mM solution to the well will give a final concentration of 10 μM.
Compounds which will not go into solution in culture medium are resuspended in DMSO at a concentration of 25 mM. The stock solution is then diluted to the final concentration in culture medium. The old medium is aspirated and 1 mL of the new medium with the compound is added. For example, if the final concentration is 50 μM, the 2 μL of the 25 mM stock is added per mL of culture medium. The […] solution is diluted for lower concentrations.
The compounds are added to the plate (each compound is done in duplicate). One plate is done for VCAM expression and one plate is done for ICAM expression.
Immediately after the compounds are added, TNF is added to each well. 100 units/mL TNF is usually added to each well. Since each lot of TNF varies in the number of units, each new lot is titrated to determine the optimum concentration. Therefore this concentration will change. If 100 units/mL is bing used, dilute the TNF to 10 units/μL and add 10 μL to each well.
The plates are incubated at 37° C., 5% CO2 overnight (approximately 16 hours). The next day the plates are checked under the microscope to see if there are any visual signs of toxicity. Records are made of any cell death, debris, or morphology changes, as well as insoluble compounds (particulate or turbity).
In order to assess MCP-1, the media (500 μL) is saved and frozen at −70° C. Wash cells once with roughly 1 ml/well of Hanks Balance Salt Solution (HBSS) or PBS. Gently empty the wash solution and then tap the plate onto paper towels. Add either 250 μL/well of HBSS +5% FCCS to the plank (no primary antibody wells) or 250 μL/well of primary antibody diluted in HBSS +5% FCS. Incubate for 30 minutes at 37° C. Wash the wells twice with 0.5 mL/well HBSS or PBS and gently tap the plates onto paper towels after the last wash. Add 250 μL/well of HRP-conjugated second antibody diluted in HBSS +5% FCS to every well including the blank wells (no primary antibody). Incubate at 37° C. for 30 minutes. Wash the wells four times with 0.5 mL/well HBSS or PBS and gently tap the plates onto paper towels after the last wash. Add 250 μL/well of substrate solution. Incubate at room temperature in the dark until there is adequate color development (blue). Note the length of time incubation was performed (typically 15-30 minutes). Add 75 μL/well stopper solution (8N sulfuric acid), and read A450 nm.

[2] = system: ApoB/HepG2; test: Lipid Screen & IC50 Determination Protocol: ApoB ELISA of HEPG2 media; type: cell-based, human; details: HEPG2, 24 hours; for IC50: bare number = IC50, NE not defined in the patent, read-out: ApoB/HepG2 IC50 or % inhibition at [μM]: IC50; for ApoB/HepG2 % inhibition at [μM]: at 15 μM
Description: HEPG2 cell was started in 10 ml of MEM, 10% FBS, 1 mM Sodium Pyruvate. The cells were incubated in a tissue culture incubator. The cells were split into 4×96-wells plate in MEM, 10% FBS, 1 mM Sodium Pyruvate and allowed to grow to about 50% confluency and then removed.
The cells were treated with the desired concentration of compounds in 100 μl DMEM, 1% RSA for 24 hours. The compounds are dissolved in DMSO.
On the same day, 4×96-wells NuncImmunoSorb plate is coated with 100 μl of mouse anti-human ApoB monoclonal 1D1 (1:1000 dilution in 1×PBS, pH 7.4). The coating is allowed overnight.
The coated plate is washed 3 times with 1×PBS, pH 7.4, −0.05% Tween 20. 100 μl of the standards is added to the selected wells. ApoB standards are prepared at 6.25, 3.12, 1.56, 0.78, 0.39 ng, and each concentration is done in triplicates. For samples:
90 μl of 1×PBS, pH 7.4, −0.05% Tween 20 is added to each well corresponding to the sample. 10 μl of media is transferred from the treated HEPG2 plates to the ApoB ELISA plate. The plate is incubated at room temperature for 2 hours, rocking gently.
Wash the coated plate 3× with 1×PBS, pH 7.4, −0.05% Tween 20. Add 100 μl of sheep anti-human ApoB polyclonal from Boehringer Mannheim. (1:2000 dilution in 1×PBS, pH 7.4, −0.05% Tween 20) from Boehringer Mannheim. Incubate at room temperature for 1 hour, rocking gently. Wash the coated plate 3× with 1×PBS, pH 7.4, −0.05% Tween 20. Add 100 μl of rabbit anti-sheep IgG (1:2000 dilution in 1×PBS, pH 7.4, −0.05% Tween 20). Incubate at room temperature for 1 hour, rocking gently. Wash the coated plate 3× with 1×PBS, pH 7.4, −0.05% Tween 20. Add 100 μl of substrate (10 ml of distilled water, 100 μl of TMB (10 mg/ml), and 1 μl of hydrogen peroxide). Allow color to emerge and stop reaction with 25 ul of 8N sulfuric acid. Wells are read with MicroPlate Reader @ […]. Graph accumulation of ApoB in media as a percentage of control for each sample and their concentration. A determination of IC50 is obtained from the graph.
The degree of inhibition of the compounds of formulas (I) and (II) was determined by the assays described in Examples 62-64.

Molecule	IC50 [1] [µM]	IC50 [2] [µM]	VCAM-1 % inhibition at [μM] [1] [% at 50]	ApoB/HepG2 % inhibition at [μM] [2] [% at 15]
CC(C)(C)c1cc(S(=O)(=O)Cc2ccc([N+](=O)[O-])cc2)cc(C(C)(C)C)c1O [2,6-di-tert-butyl4-(sulfonyl-(4′-nitrobenzyl))phenol]	40	25		
CC(C)(C)c1cc(SCc2ccc([N+](=O)[O-])cc2[N+](=O)[O-])cc(C(C)(C)C)c1O [2,6-di-tert-butyl4-thio(2′,4′-dinitrobenzyl)phenol]	8	32		
CC(C)(C)c1cc(SCc2ccc([N+](=O)[O-])cc2)cc(C(C)(C)C)c1O [2,6-di-tert-butyl4-thio(4′-nitrobenzyl)phenol]	10	27		
CC(C)(C)c1cc(SCc2cccc([N+](=O)[O-])c2)cc(C(C)(C)C)c1O [2,6-di-tert-butyl-4-thio(3′-nitrobenzyl)phenol]	13	20		
CC(C)(C)c1cc(SCCCS(=O)(=O)O)cc(C(C)(C)C)c1O [2,6-di-tert-butyl-4-thio(3′-propanesulfonic acid)phenol]			25	
CC(C)(C)c1cc(SCc2ccc(CC(=O)O)cc2)cc(C(C)(C)C)c1O [2,6-di-tert-butyl-4-thio(4′(methyl)phenylacetic acid))phenol]	80			7
CC(C)(C)c1cc(SCc2ccc(CCO)cc2)cc(C(C)(C)C)c1O [2,6-di-tert-butyl-4-thio(4′-(methyl)phenylethyl alcohol))phenol]	15			53
CC(=O)Oc1ccc(CSc2cc(C(C)(C)C)c(O)c(C(C)(C)C)c2)cc1 [2,6-di-tert-butyl-4-thio(4′-acetoxybenzyl)phenol]	18	40		
CC(C)(C)c1cc(SCc2ccc(F)cc2)cc(C(C)(C)C)c1O [2,6-di-tert-butyl-4-thio(4′-fluorobenzyl)phenol]	35	30		
CN(C)S(=O)(=O)c1ccc(CSc2cc(C(C)(C)C)c(O)c(C(C)(C)C)c2)cc1 [2,6-di-tert-butyl-4-thio(4′-methyl-N,N-dimethylbenzenesulfonamide)phenol]	20	31		
Cc1ccc(CSc2cc(C(C)(C)C)c(O)c(C(C)(C)C)c2)cc1 [2,6-di-tert-butyl-4-thio(4′-methylbenzyl)phenol]	75	22		
CC(C)(C)c1cc(SCCc2ccc([N+](=O)[O-])cc2)cc(C(C)(C)C)c1O [2,6-di-tert-butyl-4-thio(4′-nitrophenethyl)phenol]	15			
CN(C)Cc1ccc(CSc2cc(C(C)(C)C)c(O)c(C(C)(C)C)c2)o1 [2,6-di-tert-butyl-4-thio(5′-methyl-2′-((dimethylamino)methyl)furan)phenol]	10	19		
CC(C)(C)c1cc(SCCCC(=O)O)cc(C(C)(C)C)c1O [2,6-di-tert-butyl-4-thio(butanoic acid)phenol]	75			
CC(C)(C)c1cc(SCc2ccc(C(=O)O)o2)cc(C(C)(C)C)c1O [2,6-di-tert-butyn4-thio((2′-furancarboxylic acid)-5-methyl)phenol]	40			
CC(C)(C)c1cc(SCc2ccc(C(F)(F)F)cc2)cc(C(C)(C)C)c1O [(2,6-di-tert-butyl4-thio(4′-(trifluoromethyl)benzyl)phenol]	5	16		
CC(C)(Sc1cc(C(C)(C)C)c(O)c(C(C)(C)C)c1)Sc1cc(C(C)(C)C)c(OC(=O)CCC(=O)O)c(C(C)(C)C)c1 [Butanedioic acid, mono [4-[[1-[[3,5-bis(1,1-dimethylethyl)-4-hydroxyphenyl]thio]-1-methylethyl]thio]2,6-bis(1,1-dimethylethyl)phenyl]ester]	5.6			65
CC(C)(Sc1cc(C(C)(C)C)c(O)c(C(C)(C)C)c1)Sc1cc(C(C)(C)C)c(OCC2OC2CO)c(C(C)(C)C)c1 (centres unmarked) [Oxiranemethanol, 3-[[4-[[1-[[3,5-bis(1,1-dimethylethyl)-4-hydroxyphenyl]thio]-1-methylethyl]thio]-2,6-bis(1,1-dimethylethyl)phenoxy]methyl]-]	> 100			
CC(C)(Sc1cc(C(C)(C)C)c(O)c(C(C)(C)C)c1)Sc1cc(C(C)(C)C)c(OCC(O)C2CO2)c(C(C)(C)C)c1 (stereo not drawn) [Oxiranemethanol, α-[[4-[[1-[[3,5-bis(1,1-dimethylethyl)-4-hydroxyphenyl]thio]-1-methylethyl]thio]-2,6-bis(1,1-dimethylethyl)phenoxy]methyl]-]	45			
CC(C)(Sc1cc(C(C)(C)C)c(O)c(C(C)(C)C)c1)Sc1cc(C(C)(C)C)c(OC(=O)CCCC(=O)O)c(C(C)(C)C)c1 [Pentanedioic acid, mono[4-[[1-[[3,5-bis(1,1-dimethylethyl)-4-hydroxyphenyl]thio]-1-methylethyl]thio]-2,6-bis(1,1-dimethylethyl)phenyl] ester]	8.7			70
CC(C)(Sc1cc(C(C)(C)C)c(O)c(C(C)(C)C)c1)Sc1cc(C(C)(C)C)c(OCc2ccc([N+](=O)[O-])cc2)c(C(C)(C)C)c1 [Phenol, 4-[[1-[3,5-bis(1,1-dimethylethyl)-4-[(4-nitrophenyl)methoxy]phenyl]thio]-1-methylethyl]thio]2,6-bis(1,1-dimethylethyl)-]			30	17
CC1(C)OC2OC(COc3c(C(C)(C)C)cc(SC(C)(C)Sc4cc(C(C)(C)C)c(O)c(C(C)(C)C)c4)cc3C(C)(C)C)C3OC(C)(C)OC3C2O1 [α-D-Galactopyranose, 60-[4-[[1-[[3,5-bis(1,1-dimethylethyl)-4-hydroxyphenyl]thio]-1-methylethyl]thio]-2,6-bis(1,1-dimethylethyl)phenyl]-1,2:3,4-bis-O-(1-methylethylidene)]	45			
Oxiranemethanol, α-[[[3-[[4-[[1-[[3,5-bis(1,1-dimethylethyl)-4-hydroxyphenyl]thio]-1-methylethyl]thio]-2,6-bis(1,1-dimethylethyl)phenoxy]methyl]oxiranyl]methoxy]methyl]-	60			

From patent publication US6602914B2, “Compounds and methods for the inhibition of the expression of VCAM-1” (AtheroGenics, Inc., priority 1997, dated 2003)
